Assay results published in patent US7040746B2, “Inkjet ink having yellow dye mixture” (Lexmark International, Inc., priority 2003, dated 2006).

Assays:
Type in all cases: physicochemical
[1] = CIELAB color data and optical density of printed ink patches (Gretag-McBeth Spectolino/Spectrascan); settings: dye alone in ink
From the text: CIELAB Color System-Space: The CIELAB color system was established by the Commission Internationale de l'Eclairage (CIE) in 1976. It is color space to be used for the specification of color differences. The L* is a correlate to perceived lightness ranging from 0.0 for black to 100.0 for a diffuse white. The a* and b* dimensions correlate approximately with red-green and yellow-blue chroma perceptions. They take on both negative and positive values. Their maximum values are limited by the physical properties of materials. The color difference (ΔE*ab) between two color points. (L*[…]) and (L*2, a*2, b2), is defined by the distance between the two points and computed by ΔE*ab=[(L*2−L*1)^2+(a*2−a*1)^2+(b*2−b*1)^2]^1/2
The cylindrical coordinate system provides predictors of lightness. L*, chroma, C*, and hue, H*. The chroma correlates the colorfulness of an area and the hue correlates the types of colors such as red, green, blue, yellow, etc. The relationship among a*, b*, C* and H* is given by C*=[a*2+b*2]^1/2 H*=tan^−1(b*/a*) a*=C* cos(H*) b*=C* sin(H*)
(§1) The color data was collected on a Gretag-McBeth Spectolino/Spectrascan with 100% coverage patches printed on Kodak Premium Photo Paper. Permanence was evaluated by measuring the relative fade of 0.6 OD yellow block printed on Ilford Printasia Glossy Photo Paper after 504 hours of exposure to 43-kLux cool white fluorescent illumination.

[2] = Permanence: relative fade of 0.6 OD yellow block under fluorescent illumination; settings: dye alone in ink; for permanence (relative fade): 0.6 OD block on Ilford Printasia Glossy Photo Paper, 504 hours, 43-kLux cool white fluorescent, higher = more fade
Experimental: as §1

[3] = Aqueous solubility of dye
[4] = 3% by weight, Kodak Premium Photo Paper

C* (chroma) ([1]; 3.4% by weight) | H* (hue) ([1]; 3.4% by weight) | a* ([1]; 3.4% by weight) | b* ([1]; 3.4% by weight) | optical density ([1]; 3.4% by weight) | permanence (relative fade) ([2]; 3.4% by weight) [%] | aqueous solubility [3] [%] | H* (hue) ([1]; 3% by weight) | a* ([1]; 3% by weight) | b* ([1]; 3% by weight) | optical density ([1]; 3% by weight) | C* (chroma) [1, 4] | lightfastness / permanence (in words) ([2]; 3% by weight) | permanence (relative fade) ([2]; 3% by weight) [%] | Compound
106.7 | 86.9 | 5.9 | 106.3 | 1.7 | 18 | 13 |  |  |  |  |  |  |  | Direct Yellow 132
 |  |  |  |  |  | 19 | 96.3 | −10.8 | 92.6 | 1.3 | 93.2 | much better permanence | 27.9 | Acid Yellow 17
 |  |  |  |  |  | 40 | 89.5 | 1.0 | 110.3 | 1.5 | 110.3 | extremely poor lightfastness | 86.6 | O=C([O-])C1=NN(c2ccc(S(=O)(=O)[O-])cc2)C(=O)C1N=Nc1ccc(S(=O)(=O)[O-])cc1.[Na+].[Na+].[Na+] (centres unmarked) [Acid Yellow 23, reference compound]
